The values that follow come from ChEMBL document CHEMBL1135899, “Design, synthesis, and evaluation of opioid analogues with non-peptidic beta-turn scaffold: enkephalin and endomorphin mimetics” (J Med Chem, 2002).

Where only a bound is given, the exact number is not on record here.

As a reminder, the inhibition is the share of the control response that was lost under treatment. A high value points to a strong effect. By IC50 is commonly meant the concentration that gives 50% inhibition.

Test [1] has as its target T1, Opioid receptor (Rattus norvegicus) (UniProt P33533+P34975+P33535). The test can be described thus: Inhibition of [3H]naloxone binding to opioid receptor in rat cerebral cortex at 1 uM. It counts as tissue-based.
In test [2] the target is Opioid receptor (Rattus norvegicus, UniProt P33533+P34975+P33535). The test can be described thus: Inhibition of [3H]-Naloxone binding to opioid receptor in rat cerebral cortex. Format: tissue-based.
For test [3], the target named is T1, Opioid receptor (Rattus norvegicus). The test can be described thus: Inhibition of [3H]naloxone binding to opioid receptor in rat cerebral cortex at 0.1 uM. It counts as tissue-based.
For test [4], the target named is Mu-type opioid receptor (Homo sapiens) (UniProt P35372). As to the kind of experiment: Ability to displace [3H]-DAMGO from human Opioid receptor mu 1 at 0.1 uM.
In test [5] the target is delta opioid receptor (Homo sapiens) (UniProt P41143). As to the kind of experiment: Displacement of [3H]DPDPE from human delta opioid receptor at 0.1 uM. Background: In a radioligand displacement assay an active substance lowers the binding of a labelled ligand.
Test [6] concerns the target Kappa-type opioid receptor (Homo sapiens) (UniProt P41145). As to the kind of experiment: Ability to displace [3H]-U 69593 from human Opioid receptor kappa 1 at 0.1 uM.
Test [7] has as its target Mu-type opioid receptor (Homo sapiens) (UniProt P35372). The test can be described thus: Ability to displace [3H]DAMGO from human Opioid receptor mu 1 at 0.1 uM.

T1 sequence (P33533 whole entry, looked up): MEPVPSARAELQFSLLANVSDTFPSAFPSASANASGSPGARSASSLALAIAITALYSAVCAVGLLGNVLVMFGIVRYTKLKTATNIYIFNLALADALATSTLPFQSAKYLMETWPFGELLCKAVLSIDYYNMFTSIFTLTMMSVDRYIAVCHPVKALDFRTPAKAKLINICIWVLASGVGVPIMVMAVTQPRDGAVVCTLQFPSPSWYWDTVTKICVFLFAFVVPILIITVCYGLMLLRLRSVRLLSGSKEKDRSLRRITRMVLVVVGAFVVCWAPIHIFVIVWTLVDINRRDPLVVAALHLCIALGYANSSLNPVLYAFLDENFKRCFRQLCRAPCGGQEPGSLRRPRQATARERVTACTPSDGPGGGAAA
T1 sequence (P33535 whole entry, looked up): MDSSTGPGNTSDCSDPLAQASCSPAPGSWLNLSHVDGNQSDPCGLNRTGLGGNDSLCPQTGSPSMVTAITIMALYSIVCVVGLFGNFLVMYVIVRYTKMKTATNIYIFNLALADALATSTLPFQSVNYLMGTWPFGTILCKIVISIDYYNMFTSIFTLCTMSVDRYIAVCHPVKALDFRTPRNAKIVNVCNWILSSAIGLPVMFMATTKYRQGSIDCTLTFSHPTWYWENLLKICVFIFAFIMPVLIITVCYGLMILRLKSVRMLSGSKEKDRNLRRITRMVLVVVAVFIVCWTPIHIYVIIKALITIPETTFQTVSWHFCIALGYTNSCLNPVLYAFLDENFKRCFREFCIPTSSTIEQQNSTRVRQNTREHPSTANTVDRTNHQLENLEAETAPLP
T1 sequence (P34975 whole entry, looked up): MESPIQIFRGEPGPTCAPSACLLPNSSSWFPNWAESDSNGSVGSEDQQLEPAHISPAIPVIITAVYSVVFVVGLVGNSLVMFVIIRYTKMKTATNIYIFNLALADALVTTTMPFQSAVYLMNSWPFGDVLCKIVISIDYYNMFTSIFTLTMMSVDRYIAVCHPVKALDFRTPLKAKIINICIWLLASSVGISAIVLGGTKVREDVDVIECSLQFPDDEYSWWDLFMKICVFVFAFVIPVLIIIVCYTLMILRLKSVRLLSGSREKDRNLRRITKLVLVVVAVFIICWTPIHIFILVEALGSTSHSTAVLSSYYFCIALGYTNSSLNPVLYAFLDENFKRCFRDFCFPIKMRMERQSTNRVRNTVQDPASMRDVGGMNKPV
Chain of Mu-type opioid receptor (Homo sapiens) (P35372 whole entry): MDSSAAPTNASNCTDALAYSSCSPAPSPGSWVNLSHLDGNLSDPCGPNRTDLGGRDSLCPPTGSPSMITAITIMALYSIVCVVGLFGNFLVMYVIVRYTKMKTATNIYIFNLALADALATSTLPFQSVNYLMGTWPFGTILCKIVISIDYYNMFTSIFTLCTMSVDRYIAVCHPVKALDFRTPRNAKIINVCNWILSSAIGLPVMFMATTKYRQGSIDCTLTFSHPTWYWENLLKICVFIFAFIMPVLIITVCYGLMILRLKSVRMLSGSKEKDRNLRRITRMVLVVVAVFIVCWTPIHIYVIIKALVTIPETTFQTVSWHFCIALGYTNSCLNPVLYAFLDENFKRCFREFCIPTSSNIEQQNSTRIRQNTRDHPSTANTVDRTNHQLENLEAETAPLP
Chain of delta opioid receptor (Homo sapiens) (P41143 whole entry, looked up): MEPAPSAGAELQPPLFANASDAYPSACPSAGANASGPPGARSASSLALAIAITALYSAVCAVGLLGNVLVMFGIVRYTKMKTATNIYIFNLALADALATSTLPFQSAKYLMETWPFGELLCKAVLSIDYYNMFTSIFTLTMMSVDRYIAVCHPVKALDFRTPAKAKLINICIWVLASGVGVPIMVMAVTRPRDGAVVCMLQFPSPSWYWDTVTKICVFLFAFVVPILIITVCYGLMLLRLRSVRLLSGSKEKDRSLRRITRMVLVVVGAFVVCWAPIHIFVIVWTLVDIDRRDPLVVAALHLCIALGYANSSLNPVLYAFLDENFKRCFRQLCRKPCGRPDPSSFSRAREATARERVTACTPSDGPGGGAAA
Chain of Kappa-type opioid receptor (Homo sapiens) (P41145 whole entry): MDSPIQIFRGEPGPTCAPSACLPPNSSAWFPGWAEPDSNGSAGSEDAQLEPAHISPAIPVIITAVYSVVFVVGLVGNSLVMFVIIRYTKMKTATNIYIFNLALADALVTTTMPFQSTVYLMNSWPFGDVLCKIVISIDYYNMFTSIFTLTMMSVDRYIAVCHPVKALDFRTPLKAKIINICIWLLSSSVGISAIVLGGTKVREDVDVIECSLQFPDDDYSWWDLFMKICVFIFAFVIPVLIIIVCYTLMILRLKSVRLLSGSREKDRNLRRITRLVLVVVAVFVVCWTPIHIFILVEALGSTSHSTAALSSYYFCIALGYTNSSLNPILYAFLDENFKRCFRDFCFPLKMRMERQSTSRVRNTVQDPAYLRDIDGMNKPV

On to `O=C1[C@H](Cc2ccccc2)N2C(=O)CCN(C(=O)OCCc3ccc(O)cc3)[C@H]2CN1CCc1ccccc1`, for which the inhibition in test [1] came to 96%. The compound further returned a concentration for half-maximal inhibition (IC50) in test [2] of 80 nM.

As to `CCCCCN1C[C@@H]2N(C(=O)OCCc3ccc(O)cc3)CCC(=O)N2[C@@H](Cc2ccccc2)C1=O`, in test [1], the inhibition stood at 84%. Besides, in test [2], the IC50 is 149 nM.

Take `CCCCCNC(=O)[C@H](CCc1ccccc1)NC(=O)CCNC(=O)OCCc1ccc(O)cc1`: the inhibition in test [1] was under 10%. This compound also returned an IC50 in test [2] of over 1000 nM.

As to `CCCCCN1C[C@@H]2N(C(=O)OCCc3ccc(O)cc3)CCC(=O)N2[C@@H](CCc2ccccc2)C1=O`, the inhibition in test [3] came out at 79%; in test [1], 99%. In addition, the Selectivity in test [4] is 91%; in test [5] it was under 10%; in test [6] it was under 10%. The IC50 in test [2] was found to be 27 nM.

As for `O=C1[C@H](CCc2ccccc2)N2C(=O)CCN(C(=O)OCCc3ccc(O)cc3)[C@H]2CN1CCc1ccccc1`, in test [3], the inhibition was found to be 91%. Also, the results for the Selectivity in test [7], in test [5] and in test [6] were 101%, under 10% and under 10%, respectively. The compound also displayed an IC50 in test [2] of 9 nM.
